*: point of attachment. ACC = NC(=O)Cc1cc(=O)oc2cc(N*)ccc12
Tests used:
Assay type in all cases: biochemical
[1] = test system: MALT1 in RAW 264.7 cell lysates; assay: Labeling of active MALT1 in RAW 264.7 cell lysates; details: RAW 264.7 lysates pretreated with 1 µL of 10 mM mepazine, then 500 nM PKG105
Method: Figure 3 Probe to detect active MALT1. Panel a. Structure of the MALT1 probe (PKG105). Panel b. RAW 264.7 cell lysates were incubated with PKG105 at various concentrations. As a control, lysates were pretreated with mepazine, followed by incubation with probe. Lysates that were not treated with mepazine were also used. SDS-PAGE was performed at 165 V. Fluorescence was scanned using the 700 nm channel (LI-COR). Gels are representative of at least two replicates. TEXT PRINTED IN THE PICTURE: (a) PKG105: kobs/I = 92,000 M^-1s^-1
Twenty-five microliters of RAW 264.7 cell lysates (from 5 * 10^6 cells/mL) were incubated with PKG105 at concentrations ranging from 8 to 500 nM. As controls, cells that were not incubated with probe or cells that were pretreated with 1 µL of 10 mM mepazine were treated with 500 nM PKG105. The lysates were incubated with the probe for 30 minutes at 37 °C, followed by denaturation in 3 × SDS-loading buffer for 5 minutes at 95 °C. SDS-PAGE was performed under reducing conditions for 37 minutes at 165 V. The fluorescence signal in the gel was measured using a Li-Cor (Odyssey®) at a wavelength of 700 nm.

MALT1 [2] = target: T1, MALT1 (Homo sapiens, UniProt Q9UDY8); assay: Kinetic assay of ACC fluorogenic substrates (kcat, Km, kcat/Km)
T1 sequence (Q9UDY8 1-824): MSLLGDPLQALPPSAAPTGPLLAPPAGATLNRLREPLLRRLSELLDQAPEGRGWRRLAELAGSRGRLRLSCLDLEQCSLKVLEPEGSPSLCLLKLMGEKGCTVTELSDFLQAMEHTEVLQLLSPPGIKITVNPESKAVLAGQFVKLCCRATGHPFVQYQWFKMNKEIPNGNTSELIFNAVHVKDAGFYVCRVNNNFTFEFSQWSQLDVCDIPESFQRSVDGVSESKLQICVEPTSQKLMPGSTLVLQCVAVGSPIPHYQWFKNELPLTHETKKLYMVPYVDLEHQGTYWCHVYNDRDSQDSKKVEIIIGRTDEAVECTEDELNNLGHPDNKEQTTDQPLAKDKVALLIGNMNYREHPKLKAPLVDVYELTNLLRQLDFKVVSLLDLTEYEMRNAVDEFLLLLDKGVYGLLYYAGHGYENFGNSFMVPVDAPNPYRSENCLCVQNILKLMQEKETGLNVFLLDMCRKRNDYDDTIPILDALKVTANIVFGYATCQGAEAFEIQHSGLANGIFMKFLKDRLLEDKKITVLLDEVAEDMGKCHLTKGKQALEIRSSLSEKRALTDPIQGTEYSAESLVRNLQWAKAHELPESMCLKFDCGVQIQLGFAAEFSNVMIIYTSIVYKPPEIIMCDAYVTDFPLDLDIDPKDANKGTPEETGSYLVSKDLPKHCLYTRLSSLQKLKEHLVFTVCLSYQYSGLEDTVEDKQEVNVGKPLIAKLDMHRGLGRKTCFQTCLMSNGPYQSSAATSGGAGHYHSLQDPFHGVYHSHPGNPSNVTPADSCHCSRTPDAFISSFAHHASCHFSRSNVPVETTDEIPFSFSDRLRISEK
Method: Figure 2 MALT1 substrate activity. Panel a. kcat/Km values for MALT1 substrates compared with that of the reference substrate (ALVSR). MALT1 was incubated at 37 °C for 30 minutes and added to the wells containing the substrate at varying concentrations. Relative fluorescence units were measured over time at excitation/emission wavelengths of 355/460 nm for at least 10 minutes. The data represent averages of three separate measurements, and error bars represent standard deviations. Panel b. Structure of our best (lower panel) and the reference (upper panel) MALT1 fluorogenic substrate.
All kinetic assays were performed with a Spectra Max Gemini XPS spectrofluorimeter (Molecular Devices) and 96-well Corning plates. The measurement characteristics were as follows: 37 °C, excitation/emission wavelength of 355/460 nm, cutoff of 455 nm, and varying concentrations of substrates and enzyme. The assay buffer was prepared at 23 °C and contained 50 mM HEPES (2-[4-(2-hydroxyethyl)piperazin-1-yl]ethanesulfonic acid), 100 mM NaCl, 0.9 M sodium citrate and 10 mM dithiothreitol (DTT) (pH 7.5). MALT1^FL or MALT1^CD were preincubated for 30 minutes at 37 °C before being added to wells containing substrate. Next, the increase in fluorescence was recorded over the time. Only the linear portions of the curves were used for calculations. The kcat and Km values were calculated using GraphPad Prism and Microsoft Excel software. All measurements were repeated three times, and the data presented are averages of these replicates. […]
was carried out after each coupling and Fmoc deprotection step. The N terminus was protected with an acetyl group using 5 eq AcOH, 5 eq HBTU, and 5 eq DIPEA in DMF.
After solvent removal, the resin was washed six times with DMF in order to remove excess reagents, three times with DCM, and three times with MeOH and then dried over P2O5 and cleaved from the resin with a TFA/TIPS/H2O mixture (%, v/v/v, 95:2.5:2.5).
The crude product was purified by HPLC and lyophilized. The purity of each substrate was confirmed by analytical HPLC, and each substrate was analyzed using HRMS.
Substrates were dissolved in peptide-grade DMSO to a concentration of 20 mM and stored at -80°C until use.
Calculation of kcat, Km and kcat/Km values
Kinetic parameters were calculated under the same conditions as the library with slight modification. The total reaction volume in each well was 100 μL. The substrate and enzyme concentrations used ranged from 3.90 μM to 150 μM and 40 μM, respectively.
The increase in relative fluorescence units was monitored for 20-30 minutes, and only the linear parts of the curves were used to determine the rate of the reaction. The kcat and Km values were calculated using GraphPad Prism software. All measurements were repeated three times using the appropriate concentration of the enzyme, and the data presented are averages of these repetitions.

MALT1 [3] = target: T1, MALT1; assay: P5 library screening (Ac-P5-LVSR-ACC); details: 100 nM MALT1, 1 µM substrate, 37 °C; 355/460 nm; average of three
Method: Figure 1 MALT1 S5-S2 substrate preferences. Panel a. Substrate preferences of the MALT1 S4-S2 pockets; 100 μM library component was treated with 130 nM active site-titrated MALT1 in assay buffer containing 50 mM HEPES, 100 mM NaCl, 0.9 M sodium citrate and 10 mM DTT at pH 7.5. Panel b. Structures of the preferred amino acid residues at the P4-P2 positions of MALT1. Panel c. MALT1 P5 specificity. Specificity profile of MALT1 was determined with the library of general structure Ac-P5-LVSR-ACC; 100 nM MALT1 was incubated at 37 °C for 10 minutes, followed by the addition of 1 µM substrate. Relative fluorescence units were measured over time at excitation/emission wavelengths of 355/460 nm for at least 10 minutes. The data represent averages of three separate measurements, and error bars represent standard deviations.

[4] = 37 °C, 50 mM HEPES, 100 mM NaCl, 0.9 M sodium citrate, 10 mM DTT, pH 7.5, substrate 3.90-150 μM, ACC fluorescence 355/460 nm, average of three measurements

Compound	Km (MALT1 [2]; [4])	kcat (MALT1 [2]; [4])	other results
CN1CCCC(CN2c3ccccc3Sc3ccccc32)C1 (stereo not shown) [Mepazine, reference compound]	–	–	effect of inhibitor pretreatment on probe labeling [1]: inhibited MALT1
Ac-ALVSR-{ACC} (SMILES CC(=O)N[C@@H](C)C(=O)N[C@@H](CC(C)C)C(=O)N[C@H](C(=O)N[C@@H](CO)C(=O)N[C@@H](CCCNC(=N)N)C(=O)Nc1ccc2c(CC(N)=O)cc(=O)oc2c1)C(C)C) [Ac-Ala-LVSR-ACC, reference compound]	9.45 ± 2.46 µM	0.089 ± 0.033 s⁻¹	–
Ac-KLVSR-{ACC} (SMILES CC(=O)N[C@@H](CCCCN)C(=O)N[C@@H](CC(C)C)C(=O)N[C@H](C(=O)N[C@@H](CO)C(=O)N[C@@H](CCCNC(=N)N)C(=O)Nc1ccc2c(CC(N)=O)cc(=O)oc2c1)C(C)C) [Ac-Lys-LVSR-ACC]	25.5 ± 3.56 µM	0.12 ± 0.0010 s⁻¹	–
Ac-Phe(guan)-LVPR-ACC-OH	–	–	kcat/Km (MALT1 [2]; [4]): 28,000 s^−1M^−1; rate of substrate hydrolysis (kcat/Km) (MALT1 [2]; estimated): 28,000 M^−1s^−1; kcat/Km relative to the best reported substrate to date (MALT1 [2]; times higher): approximately 3.5 times
Ac-RLVSR-{ACC} (SMILES CC(=O)N[C@@H](CCCNC(=N)N)C(=O)N[C@@H](CC(C)C)C(=O)N[C@H](C(=O)N[C@@H](CO)C(=O)N[C@@H](CCCNC(=N)N)C(=O)Nc1ccc2c(CC(N)=O)cc(=O)oc2c1)C(C)C) [Ac-Arg-LVSR-ACC]	19.06 ± 0.05 µM	0.12 ± 0.0003 s⁻¹	–
Ac-TLVSR-{ACC} (SMILES CC(=O)N[C@H](C(=O)N[C@@H](CC(C)C)C(=O)N[C@H](C(=O)N[C@@H](CO)C(=O)N[C@@H](CCCNC(=N)N)C(=O)Nc1ccc2c(CC(N)=O)cc(=O)oc2c1)C(C)C)[C@@H](C)O) [Ac-Thr-LVSR-ACC]	22.4 ± 9.94 µM	0.12 ± 0.0050 s⁻¹	–
Ac-Y(Bzl)-L-V-S-R-ACC-OH	–	–	activity at the P5 position in the library screen (MALT1 [3]): least active

From article PMC6207715, “Determination of extended substrate specificity of the MALT1 as a strategy for the design of potent substrates and activity-based probes” (Scientific Reports, 2018)
